Series [1] relates to 63 HIV isolates with reduced susceptibility to all approved protease inhibitors. The series is classed as cell-based, HIV-1. The following applies: for % FC < 2.5 / % FC < 10 / % FC > 50 / Mean FC / Median FC: 63 diverse, multi-PI-resistant strains; for Mean FC / Median FC: FC in IC50 vs NL-4.3. From the text:
The cross-resistance profile of PL-100 against 63 HIV isolates with reduced susceptibility to all approved protease inhibitors (P is) including atazanavir was thus tested.
The panel of 63 viral strains was selected based on the following rationale: 1) High-level loss of susceptibility to specific P is; 2) High-level loss of susceptibility to multiple P is; 3) Good representation of the primary mutations. This panel consists of resistant viruses from highly PI-experienced patients with high-level PI resistance.
The genotype of these viruses encompasses a wide variety of mutational patterns. We particularly looked for the following primary PI mutations: D30N, L33F/I, M461/L, G48V, I50L/V, V82A/F/S/T, I84V and L90M as defined by the International AIDS Society (IAS)-USA.
The dark cells indicate a […], the grey cells indicate FC values of 2.5≦FC<10 and the white cells indicate a FC value of; 0≦FC<2.5. The results of cross-resistance profile are further illustrated in the graph of FIG. 1.
In the cross-resistance profiling studies against the 63 resistant strains mentioned herein, EC95 of PL-100 was determined against each strain. The median EC95 represents the concentration required to inhibit 95% of the viral replication of 50% diverse drug-resistant HIV-1 variants tested. Table 8 illustrates the percentage of resistant strains tested with protein-binding adjusted EC95s≦200 ng/ml. The resistant strains are grouped by the number of primary mutations they have.
The EC95 of PL-100 was determined against each of the 63 resistant strains indicated herein. Table 9 illustrates the percentage of resistant strains tested with protein-binding adjusted EC95s≦630 ng/ml. The resistant strains are grouped by the number of primary mutations they have.

Series [2] relates to laboratory adapted HIV strain (NL4-3). Description: microbe, parasite or virus in culture. The note with it: for pEC50: Human immunodeficiency virus 1, NL43, MT4, MT4 cells infected with NL4-3; for SI (CC50/EC50): ratio of cytotoxicity (CC50) to antiviral activity (EC50). The procedure: Briefly, the antiviral activity of PL-100 was determined using MT4 cells infected with a laboratory adapted HIV strain (NL4-3). For comparison, seven approved protease inhibitors (PIs) were tested in parallel.
The effect of 40% human serum on the antiviral activity of PL-100 in MT4 cells infected with NL4-3 was therefore evaluated.

A short description of series [3]: Cytotoxicity in the same cell culture system. The series is classed as cell-based. The following applies: human, MT4 cells. Here is the method:
Cytotoxicity of PL-100 and other P is was evaluated in the same cell culture system. The selectivity index (SI) is the ratio of cytotoxicity (CC50) to antiviral activity (EC50). The selective index is similar to the therapeutic index but relates to in vitro studies.

A short description of series [4]: Plasma concentration after single oral dose in rats (in vivo cleavage of the phosphate group). More on the design: species or system male Sprague-Dawley rats. The following applies: for AUC: 50 mg/Kg po, vehicle PBS, 3 rats, released active ingredient detected (PL-100 for PL-462, PL-337 for PL-515); for Detection of the administered phosphate compound in blood samples: 50 mg/kg po as aqueous solution. The procedure: To assess the extent of in vivo cleavage of the phosphate group from the putative compounds, PL-100, PL-462 (based on PL-100), PL-337 and PL-515 (based on PL-337) compounds were administered po (per os, (i.e., by mouth)) (50 mg/kg) to male Sprague-Dawley rats and their plasma concentration measured at different time intervals post-administration.
All test articles (PL-100, PL-462, PL-337 and PL-515) were prepared in different vehicle at the final concentration of 25 mg/mL. The vehicle composition is as follows: (1) 20% ethanol; 50% propylene glycol; 0.05% w/v Tween 20 and water (Mix); (2) PBS buffer (PBS).
Test articles were administered to male Sprague-Dawley rats at a single oral dose of 50 mg/kg. Each article was tested in three rats. Blood samples (0.2-0.3 mL) were collected at the post-dose time of 10, 20, 40, 60, 120, 180 and 360 minutes. The harvested blood was centrifuged to isolate plasma. The resulting plasma was separated and stored at −70° C.
Plasma samples together with standards and quality control samples were treated to precipitate proteins, then analyzed by HPLC-MS, for the presence of PL-462, PL-100, PL-515 and PL-337.

The mark [5] stands for this setting: sample O3-148709 (non-B subtype), 32I/47A, panel ID 1.
[6] abbreviates: sample O4-148748, 37S/41K/70E, panel ID 115.
[7] abbreviates: sample O4-148749, 37T/41K/70E, panel ID 151.
[8] abbreviates: sample O4-148712, 46I/88S, panel ID 122.
The mark [9] stands for this setting: sample O4-148713, 46I/88S, panel ID 123.
Where [10] appears, read: sample O3-129578, 46I/82T/84V, panel ID 11.

The structures appear in SMILES notation. pEC50: −log10 of the molar value. Read-outs that look alike come from different tables or passages of the source.

In the case of `CC(C)CN(C[C@@H](O)[C@H](Cc1ccccc1)NC(=O)O[C@H]1CCOC1)S(=O)(=O)c1ccc(N)cc1` [Amprenavir], in series [1], the “% FC < 2.5” value was 14%, the “% FC < 10” value amounted to 52%, the “% FC > 50” value was 8% and the “Mean FC” value is listed as 18.5. Besides, in series [1], the “Median FC” value stood at 9.7. This compound also had a negative logarithm of the EC50 (pEC50) in series [2] of 7.33. The compound further gave a CC50 in series [3] of more than 100000 nM.

`COC(=O)N[C@H](C(=O)N[C@@H](Cc1ccccc1)[C@@H](O)CN(Cc1ccc(-c2ccccn2)cc1)NC(=O)[C@@H](NC(=O)OC)C(C)(C)C)C(C)(C)C` [Atazanavir]: in series [1], the “% FC < 2.5” value is listed as 16%, the “% FC < 10” value was 38%, the “% FC > 50” value amounted to 22% and the “Mean FC” value was 25.7. In addition, the “Median FC” value in series [1] is 15.6. Besides, in series [1] (setting [5]), the “Fold change in IC50 vs. Reference” value is given as 1. Moreover, the “Fold change in IC50 vs. Reference” value in series [1] (setting [6]) is listed as 1.4. Further, in series [1] (setting [7]), the “Fold change in IC50 vs. Reference” value is 1.5. In addition, in series [2], the pEC50 was 8.40 and the “SI (CC50/EC50)” value is 13,750. In series [3], this compound gave a CC50 of 55000 nM.

In the case of `CC(C)(C)NC(=O)[C@@H]1CN(Cc2cccnc2)CCN1C[C@@H](O)C[C@@H](Cc1ccccc1)C(=O)N[C@H]1c2ccccc2C[C@H]1O` [Indinavir], in series [1], the “% FC < 2.5” value is listed as 13%, the “% FC < 10” value worked out at 54%, the “% FC > 50” value is reported as 5% and the “Mean FC” value is on record as 16.5. In series [1], the “Median FC” value is on record as 8.1. In series [2], the pEC50 is 7.17. In series [3], this compound displayed a 50% cytotoxic concentration (CC50) of more than 100000 nM.

`Cc1cccc(C)c1OCC(=O)N[C@@H](Cc1ccccc1)[C@@H](O)C[C@H](Cc1ccccc1)NC(=O)[C@H](C(C)C)N1CCCNC1=O` [Lopinavir]: in series [1], the “% FC < 2.5” value is on record as 10%, the “% FC < 10” value is listed as 37%, the “% FC > 50” value was found to be 19% and the “Mean FC” value turned out to be 31.3. The “Median FC” value in series [1] came to 17.9. The “Fold change in IC50 vs. Reference” value in series [1] (sample O3-129586, 30N/88D/90M, panel ID 28) is listed as 1.2. Further, the “Fold change in IC50 vs. Reference” value in series [1] (setting [8]) amounted to 1.7. In series [1] (setting [9]), the “Fold change in IC50 vs. Reference” value stood at 0.7. Also, in series [1] (setting [6]), the “Fold change in IC50 vs. Reference” value came out at 1. For the same compound, the “Fold change in IC50 vs. Reference” value in series [1] (setting [7]) came out at 1.3. Besides, in series [2], the pEC50 was 7.72 and the “SI (CC50/EC50)” value is reported as 1,474. In series [3], this compound came in with a 50% cytotoxic concentration (CC50) of 28000 nM.

With `Cc1c(O)cccc1C(=O)N[C@@H](CSc1ccccc1)[C@H](O)CN1C[C@H]2CCCC[C@H]2C[C@H]1C(=O)NC(C)(C)C` [Nelfinavir], in series [1], the “% FC < 2.5” value came out at 10%, the “% FC < 10” value stood at 27%, the “% FC > 50” value is 10% and the “Mean FC” value was found to be 31.7. Also, the “Median FC” value in series [1] is 15. For the same compound, the “Fold change in IC50 vs. Reference” value in series [1] (setting [10]) is listed as 1.6. The “Fold change in IC50 vs. Reference” value in series [1] (setting [9]) is reported as 4.6. The “Fold change in IC50 vs. Reference” value in series [1] (setting [6]) is reported as 1.6. In addition, the “Fold change in IC50 vs. Reference” value in series [1] (setting [7]) stood at 1.9. In series [2], the pEC50 is 7.54 and the “SI (CC50/EC50)” value was found to be 276. In series [3], this compound displayed a half-maximal cytotoxic concentration (CC50) of 8000 nM.

For the compound `COC(=O)N[C@H](C(=O)NCCCC[C@@H](COP(=O)(O)O)N(CC(C)C)S(=O)(=O)c1ccc(N)cc1)C(c1ccccc1)c1ccccc1.[Na]` [PL-462, (1S,5S)-(1-{5-[(4-amino-benzenesulfonyl)-isobutyl-amino]-6-phosphonooxy-hexylcarbamoyl}-2,2-diphenyl-ethyl)-carbamic Acid Methyl Ester Sodium Salt], in series [4], the AUC came to 0.816 ± 0.295 μg/hr * ml; the “Detection of the administered phosphate compound in blood samples” value is “None of the PL-462 and PL-515 compounds, delivered as aqueous solutions, are detected”.

As for `COC(=O)N[C@H](C(=O)NCCCC[C@@H](COP(=O)(O)O)N(CC(C)C)S(=O)(=O)c1ccc(N)c(F)c1)C(c1ccccc1)c1ccccc1` [PL-515, (1S,5S)-(1-{5-[(4-amino-3-fluoro-benzenesulfonyl)-isobutyl-amino]-6-phosphonooxy-hexylcarbamoyl}-2,2-diphenyl-ethyl)-carbamic acid methyl ester], in series [4], the AUC is recorded as 1.075 ± 0.625 μg/hr * ml; the “Detection of the administered phosphate compound in blood samples” value was “None of the PL-462 and PL-515 compounds, delivered as aqueous solutions, are detected”.

In the case of `CC(C)c1nc(CN(C)C(=O)N[C@H](C(=O)N[C@@H](Cc2ccccc2)C[C@H](O)[C@H](Cc2ccccc2)NC(=O)OCc2cncs2)C(C)C)cs1` [Ritonavir, ritonavir], in series [2], the negative logarithm of the EC50 (pEC50) was 7.21.

`CC(C)(C)NC(=O)[C@@H]1C[C@@H]2CCCC[C@@H]2CN1C[C@@H](O)[C@H](Cc1ccccc1)NC(=O)[C@H](CC(N)=O)NC(=O)c1ccc2ccccc2n1` [Saquinavir]: the “% FC < 2.5” value in series [1] is 27%. In addition, in series [1], the “% FC < 10” value is recorded as 40%. Besides, in series [1], the “% FC > 50” value worked out at 37%. Moreover, the “Mean FC” value in series [1] came to 85. Further, in series [1], the “Median FC” value is 23.2. Further, the “Fold change in IC50 vs. Reference” value in series [1] (sample O3-129573, 24I/33F/46I/54L/82A, panel ID 3) stood at 1.5; in series [1] (setting [10]), 1; in series [1] (sample O3-129584, 33F/50V, panel ID 24), 1.7; in series [1] (setting [5]) it was 0.2; in series [1] (sample O4-148711, 46I/47A/84V, panel ID 119), 1.1; in series [1] (setting [8]) it was 1.9. The “Fold change in IC50 vs. Reference” value in series [1] (sample O4-148712, 46I/88S, panel ID 124) was 2; in series [1] (setting [9]) it was 0.6; in series [1] (sample O4-148721, 32I/46I/47V/50L, panel ID 127) it was 0.5; in series [1] (sample O4-148725, 32I/46L/47V/84V, panel ID 53), 0.8; in series [1] (sample O4-148745, 46I/50L/54V/82A, panel ID 99), 2.2; in series [1] (setting [6]) it was 1.2. Also, the “Fold change in IC50 vs. Reference” value in series [1] (setting [7]) worked out at 1.2. Further, the pEC50 in series [2] was 7.92. The “SI (CC50/EC50)” value in series [2] is 1,583. For the same compound, it took 19000 nM to reach half-maximal cytotoxicity in series [3] (CC50).

Source of the values: patent US20060287316A1, “METHOD FOR IMPROVING PHARMACOKINETICS OF PROTEASE INHIBITORS AND PROTEASE INHIBITOR PRECURSORS” (priority 2005, published 2006).
